As usually defined, the IC50 is the point on the concentration scale where inhibition reaches its midpoint.

The target in the test is human TRPV3 receptors (Homo sapiens (Human), UniProt Q8NET8). Nature of the test: Calcium flux assay (FLIPR TETRA), inhibition of the 2-APB response. It is filed as cell-based. As to conditions: recombinant HEK293 cells stably expressing TRPV3, Calcium-4 dye, 2-APB at its EC80. In a few lines: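 Responses are given relative to the maximal 2-APB signal in the absence of compound, using peak fluorescence over baseline. Measured by FLIPR Tetra calcium flux in stable human and mouse TRPV3 HEK293 cells after 90-120 min dark dye incubation.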
Sequence of human TRPV3 receptors (Q8NET8 whole entry): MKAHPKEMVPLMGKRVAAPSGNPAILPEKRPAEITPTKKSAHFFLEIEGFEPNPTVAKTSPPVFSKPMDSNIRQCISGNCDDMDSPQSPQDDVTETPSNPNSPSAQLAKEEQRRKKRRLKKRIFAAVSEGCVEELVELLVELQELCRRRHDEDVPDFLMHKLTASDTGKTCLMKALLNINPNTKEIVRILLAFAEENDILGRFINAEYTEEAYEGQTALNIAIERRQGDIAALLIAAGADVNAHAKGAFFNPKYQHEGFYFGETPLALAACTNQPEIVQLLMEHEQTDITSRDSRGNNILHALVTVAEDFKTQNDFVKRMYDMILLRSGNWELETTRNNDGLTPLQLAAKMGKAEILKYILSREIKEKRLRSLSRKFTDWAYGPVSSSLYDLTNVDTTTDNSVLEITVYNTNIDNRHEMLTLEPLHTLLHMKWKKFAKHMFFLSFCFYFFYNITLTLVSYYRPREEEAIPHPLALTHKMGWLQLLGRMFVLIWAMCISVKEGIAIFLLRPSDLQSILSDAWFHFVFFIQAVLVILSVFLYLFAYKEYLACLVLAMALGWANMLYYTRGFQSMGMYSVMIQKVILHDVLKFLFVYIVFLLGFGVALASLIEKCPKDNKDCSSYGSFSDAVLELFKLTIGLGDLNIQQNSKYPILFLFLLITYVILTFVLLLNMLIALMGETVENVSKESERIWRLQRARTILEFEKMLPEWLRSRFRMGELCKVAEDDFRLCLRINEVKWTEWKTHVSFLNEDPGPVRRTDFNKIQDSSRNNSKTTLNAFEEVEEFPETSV
(Calcium assays in cells follow changes in intracellular calcium, usually with a dye or a luminescent sensor.)
Take `CC(C)[C@H](CO)NCc1nc(C#CC2CCCCC2)ccc1F` [Example 240, (2R)-2-({[6-(cyclohexylethynyl)-3-fluoropyridin-2-yl]methyl}amino)-3-methylbutan-1-ol]: the IC50 came to 510 nM.

Take `CC(C)[C@H](CO)NCc1nc(C#Cc2ccc(C(C)(C)C)cc2)ccc1F` [Example 241, (2R)-2-[({6-[(4-tert-butylphenyl)ethynyl]-3-fluoropyridin-2-yl}methyl)amino]-3-methylbutan-1-ol]: the IC50 came out at 1860 nM.

Turning to `Cc1ccc(-c2ccc(F)c(CN[C@@H](CO)C(C)C)n2)s1` [Example 243, (2R)-2-({[3-fluoro-6-(5-methylthiophen-2-yl)pyridin-2-yl]methyl}amino)-3-methylbutan-1-ol], the IC50 stood at 380 nM.

Regarding `CC(C)[C@H](CO)NCc1nc(-c2cc(F)c(F)c(F)c2)ccc1F` [Example 244, (2R)-2-({[3-fluoro-6-(3,4,5-trifluorophenyl)pyridin-2-yl]methyl}amino)-3-methylbutan-1-ol], the IC50 turned out to be 160 nM.

As to `CC(C)[C@H](CO)NCc1nc(-c2ccc(F)c(F)c2F)ccc1F` [Example 245, (2R)-2-({[3-fluoro-6-(2,3,4-trifluorophenyl)pyridin-2-yl]methyl}amino)-3-methylbutan-1-ol], the IC50 came out at 160 nM.

With `CC(C)[C@H](CO)NCc1nc(-c2cc(F)c(F)cc2F)ccc1F` [Example 246, (2R)-2-({[3-fluoro-6-(2,4,5-trifluorophenyl)pyridin-2-yl]methyl}amino)-3-methylbutan-1-ol], the IC50 is 160 nM.

On to `CC(C)[C@H](CO)NCc1nc(-c2cc(F)cc(F)c2)ccc1F` [Example 247, (2R)-2-({[6-(3,5-difluorophenyl)-3-fluoropyridin-2-yl]methyl}amino)-3-methylbutan-1-ol], for which the IC50 came to 80 nM.

As for `CC(C)[C@H](CO)NCc1nc(-c2ccc3c(ccn3C)c2)ccc1F` [Example 248, (2R)-2-({[3-fluoro-6-(1-methyl-1H-indol-5-yl)pyridin-2-yl]methyl}amino)-3-methylbutan-1-ol], the IC50 amounted to 1440 nM.

On to `CC(C)[C@H](CO)NCc1nc(-c2cc3ccccc3n2C)ccc1F` [Example 249, (2R)-2-({[3-fluoro-6-(1-methyl-1H-indol-2-yl)pyridin-2-yl]methyl}amino)-3-methylbutan-1-ol], for which the IC50 came to 350 nM.

Regarding `CC(C)[C@H](CO)NCc1nc(-c2cnn(CC3OCCO3)c2)ccc1F` [Example 250, (2R)-2-[({6-[1-(1,3-dioxolan-2-ylmethyl)-1H-pyrazol-4-yl]-3-fluoropyridin-2-yl}methyl)amino]-3-methylbutan-1-ol], the IC50 is above 20000 nM.

On to `CC(C)[C@H](CO)NCc1nc(-c2ccoc2)ccc1F` [Example 251, (2R)-2-({[3-fluoro-6-(furan-3-yl)pyridin-2-yl]methyl}amino)-3-methylbutan-1-ol], for which the IC50 was 580 nM.

With `CC(C)[C@H](CO)NCc1nc(-c2ccnn2C)ccc1F` [Example 252, (2R)-2-({[3-fluoro-6-(1-methyl-1H-pyrazol-5-yl)pyridin-2-yl]methyl}amino)-3-methylbutan-1-ol], the IC50 is above 20000 nM.

Take `Cc1cc(-c2ccc(F)c(CN[C@@H](CO)C(C)C)n2)cnc1N1CCOCC1` [Example 253, (2R)-2-({[5-fluoro-5′-methyl-6′-(morpholin-4-yl)-2,3′-bipyridin-6-yl]methyl}amino)-3-methylbutan-1-ol]: the IC50 is 700 nM.

As to `CC(C)[C@H](CO)NCc1nc(-c2ccc(N3CCN(C)CC3)nc2)ccc1F` [Example 254, (2R)-2-({[5-fluoro-6′-(4-methylpiperazin-1-yl)-2,3′-bipyridin-6-yl]methyl}amino)-3-methylbutan-1-ol], the IC50 was above 20000 nM.

With `CC(C)[C@H](CO)NCc1nc(-c2ccc3sccc3c2)ccc1F` [Example 255, (2R)-2-({[6-(1-benzothiophen-5-yl)-3-fluoropyridin-2-yl]methyl}amino)-3-methylbutan-1-ol], the IC50 worked out at 230 nM.

On to `CC(C)[C@H](CO)NCc1nc(-c2ccc3occc3c2)ccc1F` [Example 256, (2R)-2-({[6-(1-benzofuran-5-yl)-3-fluoropyridin-2-yl]methyl}amino)-3-methylbutan-1-ol], for which the IC50 came out at 420 nM.

Consider `CC(C)[C@H](CO)NCc1nc([C@H]2CC[C@@H](C(F)(F)F)CC2)ccc1F` [Example 257, (2R)-2-[({3-fluoro-6-[cis-4-(trifluoromethyl)cyclohexyl]pyridin-2-yl}methyl)amino]-3-methylbutan-1-ol], for which the IC50 came to 340 nM.

Turning to `CC(C)[C@H](CO)NCc1nc([C@H]2CC[C@H](C(F)(F)F)CC2)ccc1F` [Example 258, (2R)-2-[({3-fluoro-6-[trans-4-(trifluoromethyl)cyclohexyl]pyridin-2-yl}methyl)amino]-3-methylbutan-1-ol], the IC50 is 290 nM.

Regarding `CC(C)[C@H](CO)NCc1nc(-c2cc3c(OCc4ccccc4)cccc3n2C(=O)OC(C)(C)C)ccc1F` [Example 259, tert-butyl 4-(benzyloxy)-2-[5-fluoro-6-({[(2R)-1-hydroxy-3-methylbutan-2-yl]amino}methyl)pyridin-2-yl]-1H-indole-1-carboxylate], the IC50 amounted to 520 nM.

As to `CC(C)[C@H](CO)NCc1nc(-c2cccc(-n3cccn3)c2)ccc1F` [Example 260, (2R)-2-[({3-fluoro-6-[3-(1H-pyrazol-1-yl)phenyl]pyridin-2-yl}methyl)amino]-3-methylbutan-1-ol], the IC50 worked out at 300 nM.

With `CC(C)[C@H](CO)NCc1nc(-c2cnc(N(C)C)nc2)ccc1F` [Example 261, (2R)-2-[({6-[2-(dimethylamino)pyrimidin-5-yl]-3-fluoropyridin-2-yl}methyl)amino]-3-methylbutan-1-ol], the IC50 was determined as 750 nM.

`CCCCOc1ccc(-c2cccc(CN[C@@H](CO)C(C)C)n2)cc1Cl` [Example 262, (2R)-2-({[6-(4-butoxy-3-chlorophenyl)pyridin-2-yl]methyl}amino)-3-methylbutan-1-ol]: the IC50 turned out to be 810 nM.

On to `CC(C)[C@H](CO)NCc1cccc(C#Cc2ccc(S(F)(F)(F)(F)F)cc2)n1` [Example 263, (2R)-3-methyl-2-{[(6-{[4-(pentafluoro-λ^6-sulfanyl)phenyl]ethynyl}pyridin-2-yl)methyl]amino}butan-1-ol], for which the IC50 is 230 nM.

In the case of `CC(C)[C@H](CO)NCc1cccc(C#Cc2ccc(F)cc2)n1` [Example 264, (2R)-2-[({6-[(4-fluorophenyl)ethynyl]pyridin-2-yl}methyl)amino]-3-methylbutan-1-ol], the IC50 came to 170 nM.

Take `CC(C)[C@H](CO)NCc1cccc(C#Cc2ccc(F)c(F)c2)n1` [Example 265, (2R)-2-[({6-[(3,4-difluorophenyl)ethynyl]pyridin-2-yl}methyl)amino]-3-methylbutan-1-ol]: the IC50 was determined as 190 nM.

For the compound `OCC1(NCc2cccc(-c3ccc(F)c(Cl)c3)n2)CCCC1` [Example 266, [1-({[6-(3-chloro-4-fluorophenyl)pyridin-2-yl]methyl}amino)cyclopentyl]methanol], the IC50 worked out at 390 nM.

Take `CC(C)[C@H](CO)NCc1cccc(-c2ccc(F)c(C(F)(F)F)c2)n1` [Example 267, (2R)-2-[({6-[4-fluoro-3-(trifluoromethyl)phenyl]pyridin-2-yl}methyl)amino]-3-methylbutan-1-ol]: the IC50 was determined as 180 nM.

With `OCC1(NCc2cccc(-c3ccc(F)c(C(F)(F)F)c3)n2)CCCC1` [Example 268, {1-[({6-[4-fluoro-3-(trifluoromethyl)phenyl]pyridin-2-yl}methyl)amino]cyclopentyl}methanol], the IC50 was found to be 420 nM.

Turning to `CC(C)[C@H](CO)NCc1cccc(-c2ccc(F)c(C#N)c2)n1` [Example 269, 2-fluoro-5-[6-({[(2R)-1-hydroxy-3-methylbutan-2-yl]amino}methyl)pyridin-2-yl]benzonitrile], the IC50 was 440 nM.

On to `CC(C)[C@H](CO)NCc1cccc(-c2ccc(C(F)(F)F)cc2C(F)(F)F)n1` [Example 270, (2R)-2-[({6-[2,4-bis(trifluoromethyl)phenyl]pyridin-2-yl}methyl)amino]-3-methylbutan-1-ol], for which the IC50 was found to be 550 nM.

As to `OCC1(NCc2cccc(-c3ccc(C(F)(F)F)cc3C(F)(F)F)n2)CCCC1` [Example 271, {1-[({6-[2,4-bis(trifluoromethyl)phenyl]pyridin-2-yl}methyl)amino]cyclopentyl}methano 1], the IC50 stood at 580 nM.

Consider `OCC1(NCc2cccc(-c3cc(C(F)(F)F)cc(C(F)(F)F)c3)n2)CCCC1` [Example 272, {1-[({6-[3,5-bis(trifluoromethyl)phenyl]pyridin-2-yl}methyl)amino]cyclopentyl}methano 1], for which the IC50 was found to be 220 nM.

Take `CC(C)[C@H](CO)NCc1nc(-c2cc3ccccc3n2C(=O)OC(C)(C)C)ccc1F` [Example 273, tert-butyl 2-[5-fluoro-6-({[(2R)-1-hydroxy-3-methylbutan-2-yl]amino}methyl)pyridin-2-yl]-1H-indole-1-carboxylate]: the IC50 worked out at 120 nM.

Take `CC(C)[C@H](CO)NCc1nc(-c2cc3ccccc3[nH]2)ccc1F` [Example 274, (2R)-2-({[3-fluoro-6-(1H-indol-2-yl)pyridin-2-yl]methyl}amino)-3-methylbutan-1-ol]: the IC50 is 260 nM.

With `CC1CCN(C(=O)c2ccc(-c3ccc(F)c(CN[C@@H](CO)C(C)C)n3)cc2)CC1` [Example 275, {4-[5-fluoro-6-({[(2R)-1-hydroxy-3-methylbutan-2-yl]amino}methyl)pyridin-2-yl]phenyl}(4-methylpiperidin-1-yl)methanone], the IC50 stood at 1330 nM.

As for `CC(C)[C@H](CO)NCc1nc(-c2ccc(C(=O)N3CCCC3)cc2)ccc1F` [Example 276, {4-[5-fluoro-6-({[(2R)-1-hydroxy-3-methylbutan-2-yl]amino}methyl)pyridin-2-yl]phenyl}(pyrrolidin-1-yl)methanone], the IC50 worked out at 10900 nM.

`CCCN(CCC)C(=O)c1ccc(-c2ccc(F)c(CN[C@@H](CO)C(C)C)n2)cc1` [Example 277, 4-[5-fluoro-6-({[(2R)-1-hydroxy-3-methylbutan-2-yl]amino}methyl)pyridin-2-yl]-N,N-dipropylbenzamide]: the IC50 was 650 nM.

Source of the values: patent publication US9012651B2, “TRPV3 modulators” (AbbVie Inc., priority 2011, dated 2015).
